Laboratory results taken from patent US5770410A, “Chiral synthesis with modified enzymes” (Genzyme Corporation, priority 1992, dated 1998).

Tests used:
Format in all cases: biochemical
[1] = tested on: Bacillus stearothermophilus lactate dehydrogenase loop exchange mutant BIG LOOP (loop SEQ ID No: 10); test: Steady-state kinetics, NADH-dependent reduction of 2-oxo acids (A340); settings: 25° C., pH 6
Procedure: (§1) Each pair of overlapping oligonucleotides (20 μM of each) were subjected to 30 cycles of annealing and extension (94° C. for 1 minute, cool to 45° C. for 2 minutes, 45° C. for 1 minute, heat to 72° C. in 1 minute, 72° C. for 1 minute in 50 μl containing 0.05M KCl , 10 mM Tris pH 8.3, 1.5 mM MgCl2, 0.01% gelatin), 200 μM of each dNTP and 2.5 units TAQ DNA polymerase). The double-stranded DNA product was purified and then cut with SacII and XbaI before ligating it into the plasmid pLDHrs cut with the same enzymes. The ligated products were restricted with MluI to cleave wild-type plasmid pLDHrs.
(§2) Overnight cultures (11) were centrifuged and the packed cells were resuspended in 50 mM triethanolamine, pH 6.0. The cells were sonicated and the debris was removed by centrifugation. The protein in the supernatant was precipitated by the addition of 65% ammonium sulphate. The precipitate was spun down and resuspended in 50 mM triethanolamine, pH 6.0 and dialysed against the same buffer. After dialysis, NADH and FBP were added to the protein to final concentrations of 5 mM and 10 mM before loading onto an oxamate Sepharose column which had been pre-equilibrated with 50 mM triethanoloamine, pH 6.0, 3 mM NADH and 5 mM FBP. After washing off unbound protein with column buffer mutant LDH was eluted with 50 mM triethanolamine, pH 9.0, 0.3 M NaCl. The elutant was precipitated with 65% ammonium sulphate and then resuspended in and dialysed against 50 mM triethanolamine, pH 7.5. The protein was then loaded onto a Q-Sepharose Fast Flow column and eluted with a salt gradient. LDH eluted at a concentration of 0.25M NaCl. For the double glycine mutant enzyme, the first chromatography procedure with oxamate Sepharose was replaced by chromatography on Blue Sepharose -F3GA, otherwise the procedure was essentially the same. All proteins were judged to be greater than 98% pure from the intensity of Coomassie blue staining on an SDS Phast gel (Pharmacia). The yield of protein was usually 0.2 g/l of original broth.
(§3) Steady-state measurements were made by following the reduction in absorbance at 340 nm in the NADH/NAD^+ conversion. All assays were at 25° C. in the buffer Bis-Tris, pH 6, (20 mM), containing KC1 (50 mM) and when used fructose-1,6-bisphosphate at 5 mM. Protein concentration was determined from the absorbance at 280 nm using the value of 0.91 for 1 mg/ml protein in 1 cm path and an Mr of 33,000.
(§4) The specific substrates used in the evaluations are shown in the left column of Table 4. In Table 4, "235/6GG" denotes the mutant enzyme formed by substituting GlyGly for AlaAla at the 235-236 positions of the enzyme (Wilks et al., Biochemistry 1990, 29, 8587-8591), and "WTrs" denotes a mutant derived from the wild-type strain as shown in FIG. 1 of Wilks et al., Biochemistry 1992, 31, 7802-7806.

[2] = target: T1, Bacillus stearothermophilus lactate dehydrogenase loop exchange mutant SL1 (short loop) (Geobacillus stearothermophilus, UniProt P00344, A222G/A223G/C81T, form not given); test: as above; settings: 25° C., pH 6
T1 construct: purified; +/- FBP
Procedure: as §1, §2, §3, §4

[3] = target: T2, Bacillus stearothermophilus lactate dehydrogenase loop exchange mutant SL2 (short loop) (Geobacillus stearothermophilus, UniProt P00344, A222G/A223G/C81T, form not given); test: as above; settings: 25° C., pH 6
T2 construct: purified; +/- FBP
Procedure: as §1, §2, §3, §4

[4] = target: T3, Bacillus stearothermophilus lactate dehydrogenase, wild type, SEQ ID NO: 3 (Geobacillus stearothermophilus, UniProt P00344); test: as above; settings: estimate, steady state kinetic measurements
T3 construct: made in house; host or cells: E. coli
Procedure: as §2, with “For the double glycine mutant enzyme, the first chromatography procedure with oxamate Sepharose was replaced by chromatography on Blue Sepharose -F3GA, otherwise the procedure was essentially the same. All proteins were judged to be greater than 98% pure from the intensity of Coomassie blue staining on an SDS Phast gel (Pharmacia). The yield of protein was usually 0.2 g/l of original broth.” left out
Steady-state measurements were made by following the reduction in absorbance at 340 nm in the NADH/NAD^+ conversion. […] Protein concentration was determined from the absorbance at 280 nm using the value of 0.91 for 1 mg/ml protein in 1 cm path and an Mr of 33,000. […]

[5] = target: T4, Bacillus stearothermophilus lactate dehydrogenase mutant MVS/GG (MetValSer for GlnLysPro at 102-105, GlyGly for AlaAla at 235-236) (Geobacillus stearothermophilus, UniProt P00344, A222G/A223G/K87V/P88S/Q86M); test: Steady state kinetic measurements, reduction of 4-methyl-2-oxo-3-pentenoic acid
T4 construct: made in house; host or cells: E. coli
Procedure: The mutation where alanines at 235,236 are replaced by glycines has been combined with three mutations in the mobile polypeptide loop (residues 98-112), namely […] by methionine, lysine 103 by valine and proline 105 by serine (MVS/GG).
as §3
Reduction of 4-methyl-2-oxo-3-pentenoic acid using MVS/GG (the mutant enzyme formed by substituting MetValSer for GlnLysPro at the 102-105 positions and GlyGly for AlaAla at the 235-236 positions): […]

T2 sequence (P00344 whole entry C81T/A222G/A223G, form open): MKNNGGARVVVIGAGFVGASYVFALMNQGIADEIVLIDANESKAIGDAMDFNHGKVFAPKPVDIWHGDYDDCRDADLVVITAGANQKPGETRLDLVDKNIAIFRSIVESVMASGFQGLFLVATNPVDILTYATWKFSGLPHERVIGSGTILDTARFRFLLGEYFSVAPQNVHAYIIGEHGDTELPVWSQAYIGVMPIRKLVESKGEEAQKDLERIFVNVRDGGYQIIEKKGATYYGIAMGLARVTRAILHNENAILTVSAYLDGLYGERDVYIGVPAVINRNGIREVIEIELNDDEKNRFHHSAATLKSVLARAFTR
T1 sequence (P00344 whole entry C81T/A222G/A223G, form open): as above
T4 sequence (P00344 whole entry Q86M/K87V/P88S/A222G/A223G): as the sequence (P00344 whole entry C81T/A222G/A223G, form open) above, with T81C, Q86M, K87V, P88S counted along it
T3 sequence (P00344 whole entry): as the sequence (P00344 whole entry C81T/A222G/A223G, form open) above, with T81C, G222A, G223A counted along it

Row | Compound | Km ([2]; +FBP (5 mM)) [mM] | Km ([2]; -FBP) [mM] | Km ([3]; +FBP (5 mM)) [mM] | Km ([3]; -FBP) [mM] | other results
1 | O=C(O)C(=O)CCc1ccccc1 [2-OXO-4-PHENYL BUTANOATE, 2-oxo-4-phenyl butanoic acid] | 4 | 4 | 4 | 4 | Km ([1]; +FBP (5 mM)): 7 mM; kcat ([1]; +FBP (5 mM)): 1.0 s⁻¹; kcat /KM ([1]; +FBP (5 mM)): 143 M⁻¹ s⁻¹; Km ([1]; -FBP): 12 mM; kcat ([1]; -FBP): 0.1 s⁻¹; kcat ([2]; +FBP (5 mM)): 0.03 s⁻¹; kcat /KM ([2]; +FBP (5 mM)): 7.5 M⁻¹ s⁻¹; kcat ([2]; -FBP): 0.002 s⁻¹; kcat ([3]; +FBP (5 mM)): 0.2 s⁻¹; kcat /KM ([3]; +FBP (5 mM)): 50 M⁻¹ s⁻¹; kcat ([3]; -FBP): 0.01 s⁻¹; kcat /KM ([3]; -FBP): 2.5 M⁻¹ s⁻¹
2 | CC(C)=CC(=O)C(=O)O [4-methyl-2-oxo-3-pentenoic acid] | – | – | – | – | turnover [4]: 0.03 S^-1; turnover [5]: 1.2 S^-1
3 | CCCCC(=O)C(=O)O [KETO CAPROATE, α-ketocaproate] | 16 | 20 | 25 | 60 | –
4 | CC(C)CC(=O)C(=O)O [KETOISO CAPROATE, α-ketoisocaproate] | 20 | 40 | 25 | 30 | –
5 | CC(=O)C(=O)O [PYRUVATE, pyruvate] | 0.08 | – | 0.065 | 0.5 | –
